# Structures can show the parent of a compound that is named as a salt.
# Experiments:
# PI3Kδ (p110δ/p85α) = PI3Kδ (p110δ/p85α) (Homo sapiens (Human), UniProt O00329); assay: PI3Kδ Scintillation Proximity Assay; format: biochemical; details: 20 μM PIP2, 20 μM ATP, 4 nM PI3Kδ, 210 min; read-out: PI3Kδ SPA IC50
# From the text: [γ-^33P]ATP (10 mCi/mL) was purchased from Perkin-Elmer (Waltham, Mass.). Lipid kinase substrate, D-myo-Phosphatidylinositol 4,5-bisphosphate (PtdIns(4,5)P2)D(+)-sn-1,2-di-O-octanoylglyceryl, 3-O-phospho linked (PIP2), CAS 204858-53-7, was purchased from Echelon Biosciences (Salt Lake City, Utah). PI3Kδ (p110δ/p85α) was purchased from Millipore (Bedford, Mass.). ATP, MgCl2, DTT, EDTA, MOPS and CHAPS were purchased from Sigma-Aldrich (St. Louis, Mo.). Wheat Germ Agglutinin (WGA) YSi SPA Scintillation Beads was purchased from GE healthcare life sciences (Piscataway, N.J.).
# The kinase reaction was conducted in polystyrene 384-well matrix white plate from Thermo Fisher Scientific in a final volume of 25 μL. Inhibitors were first diluted serially in DMSO and added to the plate wells before the addition of other reaction components. The final concentration of DMSO in the assay was 0.5%. The PI3K assays were carried out at room temperature in 20 mM MOPS, pH 6.7, 10 mM MgCl2, 5 mM DTT and CHAPS 0.03%. Reactions were initiated by the addition of ATP, the final reaction mixture consisted of 20 μM PIP2, 20 μM ATP, 0.2 μCi [γ-^33P]ATP, 4 nM PI3Kδ. Reactions were incubated for 210 min and terminated by the addition of 40 μL SPA beads suspended in quench buffer: 150 mM potassium phosphate pH 8.0, 20% glycerol. 25 mM EDTA, 400 μM ATP. The final concentration of SPA beads was 1.0 mg/mL. After the plate sealing, plates were shaken overnight at room temperature and centrifuged at 1800 rpm for 10 minutes, the radioactivity of the product was determined by scintillation counting on Topcount (Perkin-Elmer). IC50 determination was performed by fitting the curve of percent control activity versus the log of the inhibitor concentration using the GraphPad Prism 3.0 software.
# [1] = test system: Pfeiffer cell line (diffuse large B cell lymphoma); assay: Pfeiffer Cell Proliferation Assay; format: cell-based; details: Homo sapiens, [3H]-thymidine incorporation after 3-4 days
# Description: Pfeiffer cell line (diffuse large B cell lymphoma) was purchased from ATCC (Manassas, Va.) and maintained in the culture medium recommended (RPMI and 10% FBS). To measure the anti-proliferation activity of the compounds, the Pfeiffer cells were plated with the culture medium (2×10^3 cells/well/[…]) into 96-well ultra-low binding plates (Corning, Corning, N.Y.), in the presence or absence of a concentration range of test compounds. After 3-4 days, [^3H]-thymidine (1 μCi/well) (PerkinElmer, Boston, Mass.) in PBS was then added to the cell culture for an additional 12 hours before the incorporated radioactivity was separated by filtration with water through GF/B filters (Packard Bioscience, Meridenj, Conn.) and measured by liquid scintillation counting with a TopCount (Packard Bioscience). Pfeiffer cell proliferation data for certain compounds described herein is provided below in Table 8.
# Chain of PI3Kδ (p110δ/p85α) (O00329 whole entry, species assumed): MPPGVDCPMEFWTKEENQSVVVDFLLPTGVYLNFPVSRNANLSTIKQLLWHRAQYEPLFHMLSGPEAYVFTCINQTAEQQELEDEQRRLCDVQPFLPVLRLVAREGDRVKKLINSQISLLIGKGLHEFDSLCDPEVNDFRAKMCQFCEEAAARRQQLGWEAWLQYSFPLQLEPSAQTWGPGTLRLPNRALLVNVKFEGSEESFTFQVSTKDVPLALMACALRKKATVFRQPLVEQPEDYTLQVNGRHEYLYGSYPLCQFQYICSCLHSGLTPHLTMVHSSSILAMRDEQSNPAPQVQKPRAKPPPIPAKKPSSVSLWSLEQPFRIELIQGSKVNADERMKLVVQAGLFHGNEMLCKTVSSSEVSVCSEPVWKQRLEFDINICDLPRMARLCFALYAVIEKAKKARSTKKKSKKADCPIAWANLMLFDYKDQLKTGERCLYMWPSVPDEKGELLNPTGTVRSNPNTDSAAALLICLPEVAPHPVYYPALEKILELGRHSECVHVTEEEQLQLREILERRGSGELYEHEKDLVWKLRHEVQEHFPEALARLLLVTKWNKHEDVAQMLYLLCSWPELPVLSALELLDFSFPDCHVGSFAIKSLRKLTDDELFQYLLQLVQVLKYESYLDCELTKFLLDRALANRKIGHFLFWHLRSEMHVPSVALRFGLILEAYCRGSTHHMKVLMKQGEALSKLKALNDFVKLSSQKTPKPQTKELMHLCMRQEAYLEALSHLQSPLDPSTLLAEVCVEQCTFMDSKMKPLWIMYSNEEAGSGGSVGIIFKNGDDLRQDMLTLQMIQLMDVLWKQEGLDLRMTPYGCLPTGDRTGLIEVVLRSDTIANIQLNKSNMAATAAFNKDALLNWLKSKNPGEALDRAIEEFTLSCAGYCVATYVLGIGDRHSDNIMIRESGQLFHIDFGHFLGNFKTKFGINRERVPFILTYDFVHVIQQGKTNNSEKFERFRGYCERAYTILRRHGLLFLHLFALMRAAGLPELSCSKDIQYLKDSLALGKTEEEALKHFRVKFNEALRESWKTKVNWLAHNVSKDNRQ
# Chain of PI3Kδ (p110δ/p85α) (P27986 whole entry partner, species assumed): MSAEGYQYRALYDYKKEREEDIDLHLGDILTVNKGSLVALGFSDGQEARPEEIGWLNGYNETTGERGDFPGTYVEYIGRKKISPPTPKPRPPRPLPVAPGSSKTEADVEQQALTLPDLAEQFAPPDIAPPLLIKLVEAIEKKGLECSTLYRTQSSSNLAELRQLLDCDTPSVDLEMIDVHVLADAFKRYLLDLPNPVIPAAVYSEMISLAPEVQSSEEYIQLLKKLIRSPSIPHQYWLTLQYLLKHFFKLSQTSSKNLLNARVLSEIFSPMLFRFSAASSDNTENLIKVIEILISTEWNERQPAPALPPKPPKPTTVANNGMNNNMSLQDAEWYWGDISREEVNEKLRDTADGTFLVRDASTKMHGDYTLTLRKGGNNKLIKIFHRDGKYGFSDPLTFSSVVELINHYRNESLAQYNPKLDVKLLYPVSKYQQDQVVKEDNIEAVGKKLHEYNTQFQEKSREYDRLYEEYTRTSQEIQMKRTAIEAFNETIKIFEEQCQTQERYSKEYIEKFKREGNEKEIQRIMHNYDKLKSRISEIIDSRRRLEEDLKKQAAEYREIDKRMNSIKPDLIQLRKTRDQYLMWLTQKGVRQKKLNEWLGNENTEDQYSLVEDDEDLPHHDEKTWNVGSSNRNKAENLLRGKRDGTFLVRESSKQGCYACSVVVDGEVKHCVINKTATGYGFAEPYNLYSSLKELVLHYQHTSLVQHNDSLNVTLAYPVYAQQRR
IC50 (PI3Kδ (p110δ/p85α)) [µM],IC50 [1] [µM],SMILES
< 0.02,< 0.02,"COc1c(C(C)Nc2ncnc(N)c2C#N)cc(Cl)c(C)c1-c1cncc(C(=O)N2CCOCC2)c1 (stereo not shown) [Example 5, 4-amino-6-[(1-{5-chloro-2-methoxy-4-methyl-3-[5-(morpholin-4-ylcarbonyl)pyridin-3-yl]phenyl}ethyl)-amino]pyrimidine-5-carbonitrile]"
< 0.02,< 0.02,"COc1c(C(C)Nc2ncnc(N)c2C#N)cc(Cl)c(F)c1-c1cncc(C#N)c1 (stereo not shown) [Example 6, 4-Amino-6-({1-[5-chloro-3-(5-cyanopyridin-3-yl)-4-fluoro-2-methoxyphenyl]ethyl}-amino)pyrimidine-5-carbonitrile]"
< 0.02,< 0.02,"COc1c(C(C)Nc2ncnc(N)c2C#N)cc(Cl)c(F)c1-c1cnc(N)nc1 (stereo not shown) [Example 10, 4-amino-6-({1-[3-(2-aminopyrimidin-5-yl)-5-chloro-4-fluoro-2-methoxyphenyl]-ethyl}amino)pyrimidine-5-carbonitrile]"
< 0.02,< 0.02,"COc1c(C(C)Nc2ncnc(N)c2C#N)cc(Cl)c(F)c1-c1cncc(S(C)(=O)=O)c1 (stereo not shown) [Example 8, 4-amino-6-[(1-{5-chloro-4-fluoro-2-methoxy-3-[5-(methyl-sulfonyl)pyridin-3-yl]phenyl}ethyl)amino]-pyrimidine-5-carbonitrile bis(trifluoroacetate)]"
< 0.02,< 0.02,"COc1c(C(C)Nc2ncnc(N)c2C#N)cc(Cl)c(F)c1-c1cncc(F)c1 (stereo not shown) [Example 7, 4-amino-6-({1-[5-chloro-4-fluoro-3-(5-fluoropyridin-3-yl)-2-methoxyphenyl]ethyl}-amino) pyrimidine-5-carbonitrile]"
< 0.02,,"COc1c(C(C)Nc2ncnc(N)c2C#N)cc(Cl)c(Cl)c1-c1ccc(S(C)(=O)=O)cc1 (stereo not shown) [Example 13, 4-Amino-6-({1-[5,6-dichloro-2-methoxy-4′-(methylsulfonyl)biphenyl-3-yl]ethyl}amino) pyrimidine-5-carbonitrile]"
< 0.02,< 0.02,"COc1c(C(C)Nc2ncnc(N)c2C#N)cc(Cl)c(C)c1-c1cnc(N)nc1 (stereo not shown) [Example 3, 4-amino-6-({1-[3-(2-aminopyrimidin-5-yl)-5-chloro-2-methoxy-4-methyl-phenyl]ethyl}-amino)pyrimidine-5-carbonitrile]"
< 0.02,< 0.02,"COc1c(C(C)Nc2ncnc(N)c2C#N)cc(Cl)c(Cl)c1-c1cnc(N)nc1 (stereo not shown) [Example 14, 4-Amino-6-({1-[3-(2-aminopyrimidin-5-yl)-4,5-dichloro-2-methoxy-phenyl]ethyl}amino)pyrimidine-5-carbonitrile]"
< 0.02,< 0.02,"COc1c(C(C)Nc2ncnc(N)c2C#N)cc(Cl)c(Cl)c1-c1cncc(F)c1 (stereo not shown) [Example 12, 4-Amino-6-({1-[4,5-dichloro-3-(5-fluoropyridin-3-yl)-2-methoxyphenyl]ethyl}amino) pyrimidine-5-carbonitrile]"
,< 0.02,"COc1c(C(C)Nc2ncnc(N)c2C#N)cc(Cl)c(C)c1-c1cncc(S(C)(=O)=O)c1 (stereo not shown) [Example 1, 4-Amino-6-[(1-{5-chloro-2-methoxy-4-methyl-3-[5-(methylsulfonyl)pyridin-3-yl]phenyl}ethyl)amino]pyrimidine-5-carbonitrile trifluoroacetic acid salt]"
< 0.02,< 0.02,"COc1c(C(C)Nc2ncnc(N)c2C#N)cc(Cl)c(Cl)c1-c1cncc(S(C)(=O)=O)c1 (stereo not shown) [Example 11, 4-Amino-6-[(1-{4,5-dichloro-2-methoxy-3-[5-(methylsulfonyl)pyridin-3-yl]phenyl}ethyl)amino]pyrimidine-5-carbonitrile]"
< 0.02,,"COc1c(C(C)Nc2ncnc(N)c2C#N)cc(Cl)c(F)c1-c1ccc(S(C)(=O)=O)cc1 (stereo not shown) [Example 9, 4-amino-6-({1-[5-chloro-6-fluoro-2-methoxy-4′-(methylsulfonyl)biphenyl-3-yl]ethyl}amino) pyrimidine-5-carbonitrile]"
< 0.02,< 0.02,"COc1c(C(C)Nc2ncnc(N)c2C#N)cc(Cl)c(C)c1-c1ccc(S(C)(=O)=O)cc1 (stereo not shown) [Example 4, 4-amino-6-({1-[5-chloro-2-methoxy-6-methyl-4′-(methyl-sulfonyl)biphenyl-3-yl]ethyl}amino) pyrimidine-5-carbonitrile]"

SMILES,IC50 (PI3Kδ (p110δ/p85α)) [µM],IC50 [1] [µM]
"COc1c(C(C)Nc2ncnc(N)c2C#N)cc(Cl)c(C)c1-c1cncc(C#N)c1 (stereo not shown) [Example 2, 4-amino-6-({1-[5-chloro-3-(5-cyano-pyridin-3-yl)-2-methoxy-4-methylphenyl]ethyl}amino)-pyrimidine-5-carbonitrile]",< 0.02,< 0.02
